Measurements from patent US20250092039A1, “GLUTARIMIDE-CONTAINING PAN-KRAS-MUTANT DEGRADER COMPOUNDS AND USES THEREOF” (Tiger Biotherapeutics Inc., priority 2022, published 2025).

What was measured:
KRAS-G12V/RAF1 = KRAS-G12V/RAF1 (Homo sapiens (Human), UniProt P01116, G12V); assay: KRAS/RAF1 binding inhibition assay (AlphaScreen)
In short: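 IC50 comes from variable-slope nonlinear fits of % inhibition (relative to DMSO) against inhibitor concentration. The AlphaScreen signal tracks the interaction of GppNHp-bound KRAS G12V with the RAF1 RBD after 60 min at 4° C with compound in 2% DMSO final.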

KRAS G12V = KRAS G12V (Homo sapiens (Human), UniProt P01116, G12V); assay: KRAS G12V degradation in SW620 cells (Western blot, DC50); assay type: cell-based; conditions: 24 hours
In short: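 KRAS levels were quantified by fluorescent Western blot as percent of the DMSO control after 24 h of compound exposure at 37° C in homozygous KRAS G12V SW620 cells. A four-parameter variable-slope fit of the dose-response gave the half-maximal degradation concentration.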

SW620 cells = assay: 3D cell growth inhibition of SW620 cells carrying endogenous KRAS G12V mutation (CellTiter-Glo 3D, GI50); assay type: cell-based; conditions: Homo sapiens, SW-620, 144 h; SW620 cells, 6 days; read-out: SW620 3D cell growth GI50
In short: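 […], compound exposure lasted 6 days at 37° C, added the day after plating from DMSO stocks over a concentration range. Cells: SW620, KRAS G12V, 3D culture.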

KRAS-G12V/RAF1, sequence (P01116-2 other isoform, or with tags, fused parts or gaps G12V): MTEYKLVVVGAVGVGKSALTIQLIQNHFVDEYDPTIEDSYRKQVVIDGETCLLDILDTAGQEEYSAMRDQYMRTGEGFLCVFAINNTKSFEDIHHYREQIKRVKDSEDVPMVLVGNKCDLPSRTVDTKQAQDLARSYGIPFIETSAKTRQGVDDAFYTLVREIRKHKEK
KRAS G12V, sequence (P01116-2 other isoform, or with tags, fused parts or gaps G12V): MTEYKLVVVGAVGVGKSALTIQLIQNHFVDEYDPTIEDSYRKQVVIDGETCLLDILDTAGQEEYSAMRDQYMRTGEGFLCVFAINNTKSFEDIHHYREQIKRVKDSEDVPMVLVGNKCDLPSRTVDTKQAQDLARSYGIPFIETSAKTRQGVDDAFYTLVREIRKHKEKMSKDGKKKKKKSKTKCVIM

Compound | IC50 (KRAS-G12V/RAF1) | DC50 (KRAS G12V) | GI50 (SW620 cells)
CCc1c(F)ccc2cc(N)cc(-c3ncc4c(N5CCC[C@@](C)(O)C5)nc(OCC5(CN6CCC7(CC6)CC(CN6CCN(c8ccc9c(c8)CN([C@H]8CCC(=O)NC8=O)C9=O)CC6)C7)CC5)nc4c3F)c12 [Compound 88, (S)-3-(5-(4-((7-((1-(((7-(3-amino-8-ethyl-7-fluoronaphthalen-1-yl)-8-fluoro-4-((R)-3-hydroxy-3-methylpiperidin-1-yl)pyrido[4,3-d]pyrimidin-2-yl)oxy)methyl)cyclopropyl)methyl)-7-azaspiro[3.5]nonan-2-yl)methyl)piperazin-1-yl)-1-oxoisoindolin-2-yl)piperidine-2,6-dione] | > 200 nM | > 100 nM | 10 to 100 nM
CCc1c(F)ccc2cc(O)cc(-c3ncc4c(N5CCC[C@@](C)(O)C5)nc(OCC5(CN6CC7(CCC(F)(CN8CCN(c9ccc%10c(c9)CN([C@H]9CCC(=O)NC9=O)C%10=O)CC8)CC7)C6)CC5)nc4c3F)c12 [Compound 178, (S)-3-(5-(4-((2-((1-(((7-(8-ethyl-7-fluoro-3-hydroxynaphthalen-1-yl)-8-fluoro-4-((R)-3-hydroxy-3-methylpiperidin-1-yl)pyrido[4,3-d]pyrimidin-2-yl)oxy)methyl)cyclopropyl)methyl)-7-fluoro-2-azaspiro[3.5]nonan-7-yl)methyl)piperazin-1-yl)-1-oxoisoindolin-2-yl)piperidine-2,6-dione] | 20 to 200 nM | < 1 nM | < 10 nM
CCc1c(F)ccc2cc(O)cc(-c3ncc4c(N5CCC[C@@](C)(O)C5)nc(OCC5(CN6CCC(F)(CN7CCC(N8CCN(c9ccc%10c(c9)CN([C@H]9CCC(=O)NC9=O)C%10=O)CC8)CC7)CC6)CC5)nc4c3F)c12 [Compound 72, (S)-3-(5-(4-(1-((1-((1-(((7-(8-ethyl-7-fluoro-3-hydroxynaphthalen-1-yl)-8-fluoro-4-((R)-3-hydroxy-3-methylpiperidin-1-yl)pyrido[4,3-d]pyrimidin-2-yl)oxy)methyl)cyclopropyl)methyl)-4-fluoropiperidin-4-yl)methyl)piperidin-4-yl)piperazin-1-yl)-1-oxoisoindolin-2-yl)piperidine-2,6-dione] | < 20 nM | < 1 nM | < 10 nM
CCc1cccc2cc(O)cc(-c3ncc4c(N(C)[C@@H]5C[C@H]5F)nc(OCC5(CN6CCC7(CC6)CC(CN6CCN(c8ccc9c(c8)CN([C@H]8CCC(=O)NC8=O)C9=O)CC6)C7)CC5)nc4c3F)c12 [Compound 27, (S)-3-(5-(4-((7-((1-(((7-(8-ethyl-3-hydroxynaphthalen-1-yl)-8-fluoro-4-(((1R,2R)-2-fluorocyclopropyl)(methyl)amino)pyrido[4,3-d]pyrimidin-2-yl)oxy)methyl)cyclopropyl)methyl)-7-azaspiro[3.5]nonan-2-yl)methyl)piperazin-1-yl)-1-oxoisoindolin-2-yl)piperidine-2,6-dione] | > 200 nM | 1 to 10 nM | 10 to 100 nM
CCc1c(F)ccc2cc(O)cc(-c3ncc4c(N5CCC[C@@](C)(O)C5)nc(OCC5(CN6CC7(CCN(C8CCN(c9ccc%10c(c9)CN(C9CCC(=O)NC9=O)C%10=O)CC8)CC7)C6)CC5)nc4c3F)c12 (stereo partly drawn) [Compound 166, 3-(5-(4-(2-((1-(((7-(8-ethyl-7-fluoro-3-hydroxynaphthalen-1-yl)-8-fluoro-4-((R)-3-hydroxy-3-methylpiperidin-1-yl)pyrido[4,3-d]pyrimidin-2-yl)oxy)methyl)cyclopropyl)methyl)-2,7-diazaspiro[3.5]nonan-7-yl)piperidin-1-yl)-1-oxoisoindolin-2-yl)piperidine-2,6-dione] | < 20 nM | 1 to 10 nM | > 100 nM
CCc1c(F)ccc2cc(O)cc(-c3ncc4c(N5CCC[C@@](C)(O)C5)nc(OCC5(CN6CCC7(CC6)CN(C6CN(c8ccc9c(c8)CN(C8CCC(=O)NC8=O)C9=O)C6)C7)CC5)nc4c3F)c12 (stereo partly drawn) [Compound 163, 3-[5-[3-[7-[[1-[[7-(8-ethyl-7-fluoro-3-hydroxy-1-naphthyl)-8-fluoro-4-[(3R)-3-hydroxy-3-methyl-1-piperidyl]pyrido[4,3-d]pyrimidin-2-yl]oxymethyl]cyclopropyl]methyl]-2,7-diazaspiro[3.5]nonan-2-yl]azetidin-1-yl]-1-oxo-isoindolin-2-yl]piperidine-2,6-dione] | < 20 nM | < 1 nM | < 10 nM
CCc1c(F)ccc2cc(O)cc(-c3ncc4c(N5CCC[C@@](C)(O)C5)nc(OCC5(CN6CCC(N7CCC(N8CCN(c9ccc%10c(c9)CN([C@H]9CCC(=O)NC9=O)C%10=O)CC8)CC7)CC6)CC5)nc4c3F)c12 [Compound 147, (S)-3-(5-(4-(1′-((1-(((7-(8-ethyl-7-fluoro-3-hydroxynaphthalen-1-yl)-8-fluoro-4-((R)-3-hydroxy-3-methylpiperidin-1-yl)pyrido[4,3-d]pyrimidin-2-yl)oxy)methyl)cyclopropyl)methyl)-[1,4′-bipiperidin]-4-yl)piperazin-1-yl)-1-oxoisoindolin-2-yl)piperidine-2,6-dione] | < 20 nM | < 1 nM | < 10 nM
CCc1cccc2cc(O)cc(-c3ncc4c(N5CCC[C@@](C)(O)C5)nc(OCC5(CN6CCC(OC7CCN(c8ccc9c(c8)CN(C8CCC(=O)NC8=O)C9=O)CC7)CC6)CC5)nc4c3F)c12 (stereo partly drawn) [Compound 24, 3-(5-(4-((1-((1-(((7-(8-ethyl-3-hydroxynaphthalen-1-yl)-8-fluoro-4-((R)-3-hydroxy-3-methylpiperidin-1-yl)pyrido[4,3-d]pyrimidin-2-yl)oxy)methyl)cyclopropyl)methyl)piperidin-4-yl)oxy)piperidin-1-yl)-1-oxoisoindolin-2-yl)piperidine-2,6-dione] | 20 to 200 nM | < 1 nM | < 10 nM
C[C@@]1(O)CCCN(c2nc(OCC3(CN4CCC5(CC4)CC(N4CCN(c6ccc7c(c6)CN([C@H]6CCC(=O)NC6=O)C7=O)CC4)C5)CC3)nc3c(F)c(-c4cc(O)cc5ccc(F)c(F)c45)ncc23)C1 [Compound 170, (S)-3-(5-(4-(7-((1-(((7-(7,8-difluoro-3-hydroxynaphthalen-1-yl)-8-fluoro-4-((R)-3-hydroxy-3-methylpiperidin-1-yl)pyrido[4,3-d]pyrimidin-2-yl)oxy)methyl)cyclopropyl)methyl)-7-azaspiro[3.5]nonan-2-yl)piperazin-1-yl)-1-oxoisoindolin-2-yl)piperidine-2,6-dione] | 20 to 200 nM | 1 to 10 nM | < 10 nM
CCc1c(F)ccc2cc(O)cc(-c3ncc4c(N5CCC[C@@](C)(O)C5)nc(OCC5(CN6CCN(C7CC8(CCN(c9ccc%10c(c9)CN(C9CCC(=O)NC9=O)C%10=O)CC8)C7)CC6)CC5)nc4c3F)c12 (stereo partly drawn) [Compound 162, 3-[5-[2-[4-[[1-[[7-(8-ethyl-7-fluoro-3-hydroxy-1-naphthyl)-8-fluoro-4-[(3R)-3-hydroxy-3-methyl-1-piperidyl]pyrido[4,3-d]pyrimidin-2-yl]oxymethyl]cyclopropyl]methyl]piperazin-1-yl]-7-azaspiro[3.5]nonan-7-yl]-1-oxo-isoindolin-2-yl]piperidine-2,6-dione] | 20 to 200 nM | < 1 nM | < 10 nM
C[C@@]1(O)CCCN(c2nc(OCC3(CN4CC5(CCC(F)(CN6CCN(c7ccc8c(c7)CN([C@H]7CCC(=O)NC7=O)C8=O)CC6)CC5)C4)CC3)nc3c(F)c(-c4cc(O)cc5ccc(F)c(F)c45)ncc23)C1 [Compound 177, (S)-3-(5-(4-((2-((1-(((7-(7,8-difluoro-3-hydroxynaphthalen-1-yl)-8-fluoro-4-((R)-3-hydroxy-3-methylpiperidin-1-yl)pyrido[4,3-d]pyrimidin-2-yl)oxy)methyl)cyclopropyl)methyl)-7-fluoro-2-azaspiro[3.5]nonan-7-yl)methyl)piperazin-1-yl)-1-oxoisoindolin-2-yl)piperidine-2,6-dione] | > 200 nM | > 100 nM | 10 to 100 nM
C[C@@]1(O)CCCN(c2nc(OCC3(CN4CCC5(CC4)CC(CN4CCN(c6ccc7c(c6)CN([C@H]6CCC(=O)NC6=O)C7=O)CC4)C5)CC3)nc3c(F)c(-c4cc(N)cc(Cl)c4C(F)(F)F)ncc23)C1 [Compound 135, (S)-3-(5-(4-((7-((1-(((7-(5-amino-3-chloro-2-(trifluoromethyl)phenyl)-8-fluoro-4-((R)-3-hydroxy-3-methylpiperidin-1-yl)pyrido[4,3-d]pyrimidin-2-yl)oxy)methyl)cyclopropyl)methyl)-7-azaspiro[3.5]nonan-2-yl)methyl)piperazin-1-yl)-1-oxoisoindolin-2-yl)piperidine-2,6-dione] | 20 to 200 nM | 1 to 10 nM | < 10 nM
CCc1c(F)ccc2cc(O)cc(-c3ncc4c(N5CCC[C@@](C)(O)C5)nc(OCC5(CN6CC(N7CC8(CCN(c9ccc%10c(c9)CN(C9CCC(=O)NC9=O)C%10=O)CC8)C7)C6)CC5)nc4c3F)c12 (stereo partly drawn) [Compound 144, 3-(5-(2-(1-((1-(((7-(8-ethyl-7-fluoro-3-hydroxynaphthalen-1-yl)-8-fluoro-4-((R)-3-hydroxy-3-methylpiperidin-1-yl)pyrido[4,3-d]pyrimidin-2-yl)oxy)methyl)cyclopropyl)methyl)azetidin-3-yl)-2,7-diazaspiro[3.5]nonan-7-yl)-1-oxoisoindolin-2-yl)piperidine-2,6-dione] | < 20 nM | < 1 nM | < 10 nM
